Read-outs that look alike come from different tables or passages of the source.

For data set [1] the following is noted: from C=Cc1nn(C2CCCCO2)c2ccc(-c3cnn(C)c3OCCN(C)C(=O)c3c(I)c(Br)nn3C)cc12; cc_pd bond; Pd(OAc)2, NaHCO3, TBAC; DMF; 54.0 mM; 140.0 °C; 1.5 h.
The target of data set [2] is FLT3-ITD (Homo sapiens, UniProt P36888, ITD). The experiment in a line: HotSpot radiometric kinase assay (Reaction Biology). The data set is classed as biochemical.
Description: (§4) Briefly, specific kinase/substrate pairs along with required cofactors were prepared in reaction buffer; 20 mM Hepes pH 7.5, 10 mM MgCl2, 1 mM EGTA, 0.02% Brij35, 0.02 mg/ml BSA, 0.1 mM Na3VO4, 2 mM DTT, 1% DMSO. Compounds were delivered into the reaction, followed ˜20 minutes later by addition of a mixture of ATP (Sigma, St. Louis MO) and ^33P ATP (Perkin Elmer, Waltham MA) to a final concentration of 10 M. Reactions were carried out at room temperature for 120 min, followed by spotting of the reactions onto P81 ion exchange filter paper (Whatman Inc., Piscataway, NJ). Unbound phosphate was removed by extensive washing of filters in 0.75% phosphoric acid. […] IC50 values and curve fits were obtained using Prism (GraphPad Software).
Another data set deals with MV-4-11 cells. Put plainly: MV-4-11 cell proliferation assay (CellTiter-Glo 2.0). Type of data set: cell-based. To be noted: MV-4-11, 384-well, 11-dose dilution series, read-out: IC50, inhibition of MV-4-11 cell proliferation. The method, then:
MV-4-11 cell line was purchased from ATCC and maintained in RPMI medium supplemented with 10% fetal bovine serum and 100 U/mL of penicillin/streptomycin. One thousand MV-4-11 cells/50 μl per well were seeded in white 384-well plate, followed by treatment with indicated compounds in a 11-dose dilution series. Cell proliferation was measured using CellTiter-Glo 2.0 luciferase-based ATP detection assay (Promega, Madison, WI) following the manufacturer's protocol. Plates were then read on a TECAN Sparks multimode microplate reader. Data was analyzed using GraphPad Prism 9 (GraphPad Software, San Diego, CA) to obtain IC50 values.
A general note: Cellular ATP, detected with luciferase, serves as a proxy for viable cell number.

The target in the next data set is CLK3 (Homo sapiens (Human), UniProt P49761). Put plainly: CLK kinase activity assay (ADP-Glo). The data set is classed as biochemical. On the procedure: (§1) Kinase protein and substrate were pre-diluted in the HEPES assay buffer (100 mM HEPES, pH 7.5, 0.01% Triton X-100, 0.1% BSA, 5 mM MgCl2, 1 mM DTT, 10 μM Sodium Orthovanadate, 10 μM Beta-Glycerophosphate) dispensed into 384 well plate (5 μL per well). Control samples (0%-inhibition in the absence of inhibitor, DMSO only) and 100%-inhibition (in the absence of enzyme) were assembled in replicates of six and were used to calculate %-inhibition in the presence of compounds. Test compounds were added to the protein samples by acoustic dispensing (Labcyte Echo550). Concentration of DMSO was equalized to 1% in all samples. Reactions were initiated by addition of ATP by acoustic dispensing (Labcyte Echo550) and incubated according to assay specific incubation time. After incubation, 5 uL of Promega ADP-Glo reagent was added and incubated for 40 minutes. After 40 minutes, 10 uL of Promega kinase detection reagent was added. After 10 min of incubation with Kinase detection reagent, the luminescence was read on microplate reader (Biotek Synergy).
CLK3, sequence (P49761 whole entry): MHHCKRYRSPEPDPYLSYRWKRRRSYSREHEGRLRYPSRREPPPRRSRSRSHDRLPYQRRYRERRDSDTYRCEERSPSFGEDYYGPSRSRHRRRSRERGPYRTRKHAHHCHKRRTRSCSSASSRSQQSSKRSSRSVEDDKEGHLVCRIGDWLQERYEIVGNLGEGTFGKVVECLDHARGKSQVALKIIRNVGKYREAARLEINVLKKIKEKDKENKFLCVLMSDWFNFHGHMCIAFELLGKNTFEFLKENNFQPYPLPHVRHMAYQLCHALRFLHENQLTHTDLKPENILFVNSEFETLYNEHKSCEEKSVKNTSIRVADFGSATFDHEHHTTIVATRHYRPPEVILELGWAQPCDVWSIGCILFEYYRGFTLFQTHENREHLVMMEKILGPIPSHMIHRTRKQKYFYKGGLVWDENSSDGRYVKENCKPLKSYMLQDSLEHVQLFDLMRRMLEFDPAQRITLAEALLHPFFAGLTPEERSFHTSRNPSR
(ADP-Glo turns the ADP formed in a reaction into a luminescent signal.)

A further data set addresses CLK1 (Homo sapiens (Human), UniProt P49759). Put plainly: CLK kinase activity assay (ADP-Glo). The data set is classed as biochemical. The method, then: as §1
For the next data set, the target named is CLK4 (Homo sapiens (Human), UniProt Q9HAZ1). The experiment in a line: CLK kinase activity assay (ADP-Glo). Type of data set: biochemical. The method, then: as §1
CLK4, sequence (Q9HAZ1 whole entry): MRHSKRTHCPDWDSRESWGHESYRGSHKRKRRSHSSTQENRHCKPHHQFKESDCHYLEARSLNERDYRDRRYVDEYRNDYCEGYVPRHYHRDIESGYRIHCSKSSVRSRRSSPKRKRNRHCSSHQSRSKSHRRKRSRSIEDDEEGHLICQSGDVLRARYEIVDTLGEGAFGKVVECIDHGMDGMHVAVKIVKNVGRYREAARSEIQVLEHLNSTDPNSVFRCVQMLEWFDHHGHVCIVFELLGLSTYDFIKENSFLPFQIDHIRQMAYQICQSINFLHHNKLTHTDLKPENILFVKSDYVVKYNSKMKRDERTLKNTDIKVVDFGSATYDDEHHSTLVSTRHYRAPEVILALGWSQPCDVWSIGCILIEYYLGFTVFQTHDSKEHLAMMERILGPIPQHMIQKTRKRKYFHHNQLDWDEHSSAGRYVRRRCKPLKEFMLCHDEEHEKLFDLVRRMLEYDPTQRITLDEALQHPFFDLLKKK
The target in a further data set is CLK2 (Homo sapiens (Human), UniProt P49760). Put plainly: CLK kinase activity assay (ADP-Glo). The data set is classed as biochemical. On the procedure:
as §1

A further data set has as its target FLT3 (Homo sapiens (Human), UniProt P36888). Put plainly: HotSpot radiometric kinase assay (Reaction Biology). Type of data set: biochemical.
Data set [3] concerns Phospho-p44/42 MAPK (Erk1/2) (T202/Y204). The experiment in a line: Inhibition of kinase phosphorylation by Western Blot in MV-4-11. Type of data set: cell-based. To be noted: Homo sapiens, MV4-11; MV-4-11 cells, 4 hour-incubation; read-out: pERK MV-4-11 IC50. On the procedure:
(§2) Inhibition of kinase phosphorylation assay was performed by Western Blot using MV-4-11 and MOLM13 cell lines. Cells were plated in 24 well plates at 1 million cells per well and then treated with compounds at different concentrations, starting at 100 nM, 1:4 titration with DMSO as control. After 4 hour-incubation, cells were washed once with ice-cold PBS, and lysed in RIPA lysis buffer with protease and phosphatase inhibitors. The cell lysates were then sonicated and spun down, and 40 μg of proteins were separated by sodium dodecyl sulfate electrophoresis on a 4 to 12% Bis-Tris polyacrylamide gel and transferred onto nitrocellulose membranes using Bio-Rad Trans-Blot Turbo Transfer System (Bio-Rad). Blocking was performed using 3% BSA or 5% Non-fat dry milk (Fisher Scientific) in TBST (Tris-buffered saline containing 0.05% of Tween 20) (Bio-Rad Laboratories, Inc.). The membranes were incubated overnight with anti-phospho-FLT3 (Y589/Y591) (CST #60413), anti-phospho-STAT5 (Y694) (CST #4322), anti-Phospho-p44/42 MAPK (Erk1/2) (T202/Y204) (CST #9101), anti-Phospho-S6 Ribosomal Protein (S235/236) (CST #4858) and anti-β-Actin (CST #8457) each diluted 1000 times in 3% BSA in TBST. Membranes were washed with TBST and then incubated at room temperature for 1 hour with HRP-labeled anti-rabbit IgG polyclonal antibody (CST #7074) diluted 1000 times in 3% BSA. After TBST washing, blots were developed with a chemiluminescence system (SuperSignal West Femto Maximum Sensitivity Substrate, Pierce #34095). Luminescence was detected by LI-COR Odyssey M imaging system and luminescence intensity were quantified using Empiria Studio 2.2 software. Data was analyzed using GraphPad Prism 9 (GraphPad Software, San Diego, CA) to obtain IC50 values.

The test system of data set [4] is phospho-STAT5 (Y694). Described as above. The data set is classed as cell-based. To be noted: Homo sapiens, MV4-11; MV-4-11 cells, 4 hour-incubation; read-out: pSTAT5 MV-4-11 IC50. The method, then: as §2
Data set [5] deals with Phospho-S6 Ribosomal Protein (S235/236). Described as above. The conditions noted are these: Homo sapiens, MV4-11; MV-4-11 cells, 4 hour-incubation; read-out: pS6 MV-4-11 IC50. The data set is classed as cell-based. The method, then:
as §2

In data set [6] the test system is Phospho-p44/42 MAPK (Erk1/2) (T202/Y204). Put plainly: Inhibition of kinase phosphorylation by Western Blot in MOLM-13. Type of data set: cell-based. To be noted: Homo sapiens; MOLM-13 cells, 4 hour-incubation; read-out: pERK MOLM-13 IC50. On the procedure: as §2
In general terms: In western blotting, separated proteins are transferred to a membrane and probed.

Data set [7] deals with phospho-STAT5 (Y694). Described as above. The conditions noted are these: Homo sapiens; MOLM-13 cells, 4 hour-incubation; read-out: pSTAT5 MOLM-13 IC50. Type of data set: cell-based. The method, then: as §2
For data set [8], the system named is Phospho-S6 Ribosomal Protein (S235/236). Described as above. Type of data set: cell-based. The conditions noted are these: Homo sapiens; MOLM-13 cells, 4 hour-incubation; read-out: pS6 MOLM-13 IC50. On the procedure: as §2
Data set [9] concerns the target FLT3-ITD (Homo sapiens, UniProt P36888). Put plainly: HotSpot radiometric kinase assay (Reaction Biology). Type of data set: biochemical.
Description: as §4
In a further data set the target is PIM1 (Homo sapiens (Human), UniProt P11309). Described as above. Type of data set: biochemical. The method, then: (§3) Briefly, specific kinase/substrate pairs along with required cofactors were prepared in reaction buffer; 20 mM Hepes pH 7.5, 10 mM MgCl2, 1 mM EGTA, 0.02% Brij35, 0.02 mg/ml BSA, 0.1 mM Na3VO4, 2 mM DTT, 1% DMSO. Compounds were delivered into the reaction, followed ˜20 minutes later by addition of a mixture of ATP (Sigma, St. Louis MO) and ^33P ATP (Perkin Elmer, Waltham MA) to a final concentration of […]. Reactions were carried out at room temperature for 120 min, followed by spotting of the reactions onto P81 ion exchange filter paper (Whatman Inc., Piscataway, NJ). Unbound phosphate was removed by extensive washing of filters in 0.75% phosphoric acid. […] IC50 values and curve fits were obtained using Prism (GraphPad Software).
PIM1, sequence (P11309 whole entry): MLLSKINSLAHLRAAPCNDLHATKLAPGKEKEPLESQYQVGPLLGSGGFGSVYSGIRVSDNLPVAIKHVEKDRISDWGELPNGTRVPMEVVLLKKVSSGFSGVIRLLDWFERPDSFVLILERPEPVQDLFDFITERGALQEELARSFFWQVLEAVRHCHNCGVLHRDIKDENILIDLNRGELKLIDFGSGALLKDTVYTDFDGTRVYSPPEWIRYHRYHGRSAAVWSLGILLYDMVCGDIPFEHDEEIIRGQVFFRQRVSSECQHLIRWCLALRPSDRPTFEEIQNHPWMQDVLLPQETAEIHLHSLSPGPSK

The target in a further data set is PIM2 (Homo sapiens (Human), UniProt Q9P1W9). The data set is described as above. Type of data set: biochemical. The method, then: as §3
PIM2, sequence (Q9P1W9 whole entry): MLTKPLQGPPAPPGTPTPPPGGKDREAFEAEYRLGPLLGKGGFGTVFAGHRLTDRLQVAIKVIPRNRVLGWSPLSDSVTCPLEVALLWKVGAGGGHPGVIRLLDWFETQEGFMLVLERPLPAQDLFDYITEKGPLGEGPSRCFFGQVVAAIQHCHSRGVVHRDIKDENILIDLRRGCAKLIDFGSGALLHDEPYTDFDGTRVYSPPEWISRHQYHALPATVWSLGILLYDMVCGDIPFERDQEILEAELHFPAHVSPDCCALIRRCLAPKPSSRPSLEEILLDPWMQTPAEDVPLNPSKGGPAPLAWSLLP
A further data set concerns the target PIM3 (Homo sapiens (Human), UniProt Q86V86). Described as above. Type of data set: biochemical. On the procedure: as §3

FLT3, sequence (P36888 27-993): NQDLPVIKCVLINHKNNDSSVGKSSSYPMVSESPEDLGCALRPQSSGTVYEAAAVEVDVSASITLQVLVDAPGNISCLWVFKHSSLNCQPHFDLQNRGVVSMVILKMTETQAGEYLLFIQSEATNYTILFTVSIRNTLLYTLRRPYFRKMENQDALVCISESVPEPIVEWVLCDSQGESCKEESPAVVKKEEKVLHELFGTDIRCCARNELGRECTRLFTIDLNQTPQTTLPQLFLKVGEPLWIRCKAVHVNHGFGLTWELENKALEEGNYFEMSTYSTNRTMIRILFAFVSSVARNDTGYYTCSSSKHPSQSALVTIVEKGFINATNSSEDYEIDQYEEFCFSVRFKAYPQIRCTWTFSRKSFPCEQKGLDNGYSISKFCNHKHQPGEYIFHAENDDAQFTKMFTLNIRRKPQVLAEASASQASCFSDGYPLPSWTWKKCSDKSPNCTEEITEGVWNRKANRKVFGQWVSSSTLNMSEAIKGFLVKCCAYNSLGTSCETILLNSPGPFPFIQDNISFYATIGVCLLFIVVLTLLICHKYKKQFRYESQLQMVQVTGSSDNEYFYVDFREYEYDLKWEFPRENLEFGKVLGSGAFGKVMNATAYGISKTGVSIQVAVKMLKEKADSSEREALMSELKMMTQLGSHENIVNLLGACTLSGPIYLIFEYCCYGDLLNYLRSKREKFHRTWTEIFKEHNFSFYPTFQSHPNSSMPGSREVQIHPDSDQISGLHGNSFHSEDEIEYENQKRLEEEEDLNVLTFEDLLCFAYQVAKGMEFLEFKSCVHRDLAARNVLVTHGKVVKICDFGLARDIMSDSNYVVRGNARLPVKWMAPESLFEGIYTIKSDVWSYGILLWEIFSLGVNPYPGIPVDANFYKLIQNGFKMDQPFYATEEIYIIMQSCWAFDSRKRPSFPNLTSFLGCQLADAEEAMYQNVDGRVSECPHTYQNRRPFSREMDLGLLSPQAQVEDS
FLT3-ITD (Homo sapiens, UniProt P36888, ITD), sequence (P36888 whole entry, looked up, change not shown): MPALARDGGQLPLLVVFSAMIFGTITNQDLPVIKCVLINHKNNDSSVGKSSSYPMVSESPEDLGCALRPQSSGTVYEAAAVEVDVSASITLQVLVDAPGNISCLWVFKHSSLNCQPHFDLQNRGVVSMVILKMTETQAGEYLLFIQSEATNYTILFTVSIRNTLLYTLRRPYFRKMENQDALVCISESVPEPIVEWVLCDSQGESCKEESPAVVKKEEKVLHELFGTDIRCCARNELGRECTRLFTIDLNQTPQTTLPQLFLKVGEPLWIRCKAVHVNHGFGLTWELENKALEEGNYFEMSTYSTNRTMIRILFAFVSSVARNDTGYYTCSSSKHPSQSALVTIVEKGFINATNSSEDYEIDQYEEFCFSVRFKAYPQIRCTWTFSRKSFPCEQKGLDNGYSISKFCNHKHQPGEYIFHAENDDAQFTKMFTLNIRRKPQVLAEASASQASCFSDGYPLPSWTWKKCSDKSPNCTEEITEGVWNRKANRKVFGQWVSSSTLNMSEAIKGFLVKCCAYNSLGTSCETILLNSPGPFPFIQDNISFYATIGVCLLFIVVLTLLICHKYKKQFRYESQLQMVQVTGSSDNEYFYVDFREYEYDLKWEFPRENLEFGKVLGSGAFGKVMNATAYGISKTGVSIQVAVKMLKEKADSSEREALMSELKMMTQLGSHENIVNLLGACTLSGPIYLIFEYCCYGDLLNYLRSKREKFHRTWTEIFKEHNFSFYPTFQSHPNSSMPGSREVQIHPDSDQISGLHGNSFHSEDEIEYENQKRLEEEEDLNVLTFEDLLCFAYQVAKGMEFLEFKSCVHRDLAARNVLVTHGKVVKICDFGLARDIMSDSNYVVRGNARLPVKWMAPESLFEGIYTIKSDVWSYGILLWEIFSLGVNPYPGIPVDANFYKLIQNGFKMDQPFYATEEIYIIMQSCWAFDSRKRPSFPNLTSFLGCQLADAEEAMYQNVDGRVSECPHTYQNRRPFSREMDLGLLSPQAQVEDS
FLT3-ITD (Homo sapiens, UniProt P36888), sequence (P36888 whole entry, looked up, stated change not applied): as the sequence (P36888 whole entry, looked up, change not shown) above
CLK1, sequence (P49759 whole entry): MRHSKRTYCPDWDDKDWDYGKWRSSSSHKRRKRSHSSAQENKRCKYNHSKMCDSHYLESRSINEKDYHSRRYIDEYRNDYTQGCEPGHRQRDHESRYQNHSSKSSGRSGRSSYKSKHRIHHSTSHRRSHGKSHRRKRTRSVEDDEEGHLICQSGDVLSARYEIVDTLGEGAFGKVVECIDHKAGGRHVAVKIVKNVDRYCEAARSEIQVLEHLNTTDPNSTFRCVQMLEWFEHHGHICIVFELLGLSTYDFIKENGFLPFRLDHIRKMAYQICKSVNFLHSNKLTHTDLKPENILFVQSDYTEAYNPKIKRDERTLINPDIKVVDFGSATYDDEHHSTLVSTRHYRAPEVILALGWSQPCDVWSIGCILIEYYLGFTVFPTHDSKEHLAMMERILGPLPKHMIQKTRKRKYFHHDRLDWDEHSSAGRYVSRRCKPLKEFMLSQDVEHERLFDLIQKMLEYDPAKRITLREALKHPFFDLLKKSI
CLK2, sequence (P49760 whole entry): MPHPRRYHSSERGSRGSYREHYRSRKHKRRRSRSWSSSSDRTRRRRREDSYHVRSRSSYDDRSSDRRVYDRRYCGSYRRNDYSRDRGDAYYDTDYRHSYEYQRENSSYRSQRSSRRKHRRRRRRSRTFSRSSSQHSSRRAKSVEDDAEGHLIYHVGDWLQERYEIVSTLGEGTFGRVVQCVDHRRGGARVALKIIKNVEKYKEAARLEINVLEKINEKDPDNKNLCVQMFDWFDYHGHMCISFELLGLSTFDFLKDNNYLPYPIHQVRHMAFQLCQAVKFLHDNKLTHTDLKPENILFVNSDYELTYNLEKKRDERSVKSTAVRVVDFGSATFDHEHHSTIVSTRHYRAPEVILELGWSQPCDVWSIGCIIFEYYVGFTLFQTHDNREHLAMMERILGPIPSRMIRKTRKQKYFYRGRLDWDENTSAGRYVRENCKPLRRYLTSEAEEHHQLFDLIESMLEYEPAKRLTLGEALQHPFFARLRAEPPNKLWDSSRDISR

`CN1CCOc2c(cnn2C)-c2ccc3c(c2)c(nn3C2CCCCO2)/C=C/c2c(Br)nn(C)c2C1=O` (stereo not drawn) returned a ring closure, yield of all isomers in data set [1] of 94.8%.

As to `CN1CCOc2c(cnn2C)-c2ccc3[nH]nc(c3c2)/C=C/c2c(C#N)nn(C)c2C1=O` [Ex. 24, (17E)-8,12,14-trimethyl-13-oxo-2,10,11,12,13,14-hexahydro-8H-3,5-ethenotripyrazolo[3,4-f:3′,4′-j:4″,3″-n][1,4]oxazacyclopentadecine-16-carbonitrile], the IC50 against FLT3-ITD [2] stood at 0.475 nM; with MV-4-11 cells (Homo sapiens, MV4-11), 141 nM; on CLK3, 92.9 nM; on CLK1, 0.415 nM; at CLK4, 0.593 nM; on CLK2, 0.67 nM. The IC50 at FLT3 is 0.23 nM.

As to `CCc1nc(C(N)=O)c(Nc2ccc(N3CCC(N4CCN(C)CC4)CC3)c(OC)c2)nc1NC1CCOCC1` [Gilteritinib, reference compound], the IC50 in data set [3] turned out to be 1.63 nM; in the data set with phospho-STAT5 (Y694) [4], 1.75 nM; in data set [5] it was 0.92 nM; in data set [6], 1.31 nM; with phospho-STAT5 (Y694) [7], 2.23 nM; in data set [8] it was 7.91 nM.

`CCc1c2c(nn1C)C(=O)N(C)CCOc1c(cnn1C)-c1ccc3[nH]nc(c3c1)/C=C/2` [compound 7, (17E)-16-ethyl-8,12,15-trimethyl-2,11,12,15-tetrahydro-8H-3,5-ethenotripyrazolo[3,4-f:3′,4′-j:4″,3″-n][1,4]oxazacyclopentadecin-13(10H)-one]: the IC50 against FLT3-ITD [9] is 0.537 nM; against PIM1 it was 6.72 nM; at PIM2, 14 nM; on PIM3, 0.221 nM; in the data set on MV-4-11 cells, 73.1 nM; on FLT3, 0.247 nM.

Turning to `Cc1nn(C)c2c1/C=C/c1n[nH]c3ccc(cc13)-c1cnn(C)c1OCCN(C)C2=O` [compound 8, (17E)-8,12,14,16-tetramethyl-2,11,12,14-tetrahydro-8H-3,5-ethenotripyrazolo[3,4-f:3′,4′-j:4″,3″-n][1,4]oxazacyclopentadecin-13(10H)-one], the IC50 was 1.64 nM at PIM1; 8.17 nM at PIM2; 0.0732 nM at PIM3; under 0.2 nM with MV-4-11 cells (Homo sapiens, MV4-11).

For the compound `Cc1c2c(nn1C)C(=O)N(C)CCOc1c(cnn1C)-c1ccc3[nH]nc(c3c1)/C=C/2` [compound 9, (17E)-8,12,15,16-tetramethyl-2,11,12,15-tetrahydro-8H-3,5-ethenotripyrazolo[3,4-f:3′,4′-j:4″,3″-n][1,4]oxazacyclopentadecin-13(10H)-one], the IC50 on FLT3-ITD [2] was 0.592 nM; against PIM1, 12.7 nM; against PIM2, 145 nM; on PIM3, 3.65 nM; in the data set with MV-4-11 cells (Homo sapiens, MV4-11), about 1 nM; against FLT3, 0.347 nM.
